Legend:
TOP2A [1] = molecular target: T1, TOP2A (Homo sapiens, UniProt P11388); test: K-DNA decatenation assay, TOP2A; assay type: biochemical; conditions: 0.01-200 uM, three biological repeats
Experimental: (§1) Figure 2 T637 and T638 are TOP2A inhibitors. (A) K-DNA decatenation assays and (B) supercoiled plasmid DNA relaxation assays are used to measure TOP2A enzyme activity in the presence of 0.01–200 uM T637 or T638. Three biological repeats were performed with each concentration of the compounds, and the densitometry of the D-DNA bands from (A) and the SC bands from (B) was used to establish an inhibition curve for IC50 calculation.

TOP2A [2] = molecular target: T1, TOP2A; test: Supercoiled plasmid DNA relaxation assay, TOP2A; assay type: biochemical; conditions: 0.01-200 uM, three biological repeats
Experimental: as §1

TOP2B = TOP2B (Homo sapiens, UniProt Q02880); test: Supercoiled plasmid DNA relaxation assay, TOP2B; assay type: biochemical; conditions: 0.01-200 uM, three biological repeats
Chain of TOP2B (Q02880 whole entry): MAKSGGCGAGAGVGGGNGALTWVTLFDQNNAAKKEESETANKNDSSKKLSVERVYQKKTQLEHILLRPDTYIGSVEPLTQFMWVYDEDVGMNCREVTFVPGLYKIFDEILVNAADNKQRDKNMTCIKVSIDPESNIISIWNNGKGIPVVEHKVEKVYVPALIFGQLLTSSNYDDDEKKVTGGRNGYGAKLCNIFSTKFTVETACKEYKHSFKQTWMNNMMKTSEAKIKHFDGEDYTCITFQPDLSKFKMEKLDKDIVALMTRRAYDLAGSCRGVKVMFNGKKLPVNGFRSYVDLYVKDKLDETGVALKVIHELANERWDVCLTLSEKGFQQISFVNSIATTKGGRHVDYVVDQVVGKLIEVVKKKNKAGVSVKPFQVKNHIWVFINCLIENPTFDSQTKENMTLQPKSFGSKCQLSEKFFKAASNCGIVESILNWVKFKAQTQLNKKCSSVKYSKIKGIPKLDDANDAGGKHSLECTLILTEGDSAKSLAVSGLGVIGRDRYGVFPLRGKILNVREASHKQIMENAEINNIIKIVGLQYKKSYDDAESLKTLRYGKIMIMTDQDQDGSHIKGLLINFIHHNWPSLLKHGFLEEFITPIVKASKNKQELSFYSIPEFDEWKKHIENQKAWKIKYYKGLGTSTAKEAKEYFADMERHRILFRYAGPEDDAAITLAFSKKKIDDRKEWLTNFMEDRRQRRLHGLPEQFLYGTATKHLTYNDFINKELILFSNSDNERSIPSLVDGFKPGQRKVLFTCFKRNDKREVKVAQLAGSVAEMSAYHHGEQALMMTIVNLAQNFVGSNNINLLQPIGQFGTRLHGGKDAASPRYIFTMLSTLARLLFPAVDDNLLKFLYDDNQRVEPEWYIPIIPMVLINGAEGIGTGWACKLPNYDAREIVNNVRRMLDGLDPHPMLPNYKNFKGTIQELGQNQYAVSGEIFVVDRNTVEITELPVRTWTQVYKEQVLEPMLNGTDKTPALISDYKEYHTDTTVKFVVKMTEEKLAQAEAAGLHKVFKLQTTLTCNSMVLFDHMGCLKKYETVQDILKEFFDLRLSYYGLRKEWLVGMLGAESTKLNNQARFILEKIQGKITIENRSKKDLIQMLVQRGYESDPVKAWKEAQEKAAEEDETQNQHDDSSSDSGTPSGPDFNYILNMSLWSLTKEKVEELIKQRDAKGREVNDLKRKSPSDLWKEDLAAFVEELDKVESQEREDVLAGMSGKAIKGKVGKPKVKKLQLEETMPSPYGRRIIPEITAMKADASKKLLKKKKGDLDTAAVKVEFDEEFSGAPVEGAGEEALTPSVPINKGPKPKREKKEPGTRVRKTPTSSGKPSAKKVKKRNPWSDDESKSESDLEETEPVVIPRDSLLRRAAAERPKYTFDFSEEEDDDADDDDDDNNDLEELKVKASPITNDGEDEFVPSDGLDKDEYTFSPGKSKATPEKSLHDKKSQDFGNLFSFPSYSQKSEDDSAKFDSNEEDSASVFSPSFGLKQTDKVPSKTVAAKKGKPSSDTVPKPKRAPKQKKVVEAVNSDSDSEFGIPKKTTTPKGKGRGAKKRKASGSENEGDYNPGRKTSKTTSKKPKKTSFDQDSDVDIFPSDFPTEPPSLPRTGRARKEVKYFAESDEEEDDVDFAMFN
Experimental: as §1, with “Figure 3” for “Figure 2”, “are TOP2B” for “are TOP2A”, “measure TOP2B” for “measure TOP2A enzyme”

human TOP2A(431-1193) [3] = molecular target: T2, human TOP2A(431-1193) (Homo sapiens, UniProt P11388); test: EMSA, TOP2A(431-1193) with 5ZRF DNA oligo; assay type: binding; conditions: 2 uM protein, 300 nM oligo
T2 construct: 6xHis (N); made in house; host or cells: E. coli BL21 (DE3)
T2 sequence (P11388 431-1193): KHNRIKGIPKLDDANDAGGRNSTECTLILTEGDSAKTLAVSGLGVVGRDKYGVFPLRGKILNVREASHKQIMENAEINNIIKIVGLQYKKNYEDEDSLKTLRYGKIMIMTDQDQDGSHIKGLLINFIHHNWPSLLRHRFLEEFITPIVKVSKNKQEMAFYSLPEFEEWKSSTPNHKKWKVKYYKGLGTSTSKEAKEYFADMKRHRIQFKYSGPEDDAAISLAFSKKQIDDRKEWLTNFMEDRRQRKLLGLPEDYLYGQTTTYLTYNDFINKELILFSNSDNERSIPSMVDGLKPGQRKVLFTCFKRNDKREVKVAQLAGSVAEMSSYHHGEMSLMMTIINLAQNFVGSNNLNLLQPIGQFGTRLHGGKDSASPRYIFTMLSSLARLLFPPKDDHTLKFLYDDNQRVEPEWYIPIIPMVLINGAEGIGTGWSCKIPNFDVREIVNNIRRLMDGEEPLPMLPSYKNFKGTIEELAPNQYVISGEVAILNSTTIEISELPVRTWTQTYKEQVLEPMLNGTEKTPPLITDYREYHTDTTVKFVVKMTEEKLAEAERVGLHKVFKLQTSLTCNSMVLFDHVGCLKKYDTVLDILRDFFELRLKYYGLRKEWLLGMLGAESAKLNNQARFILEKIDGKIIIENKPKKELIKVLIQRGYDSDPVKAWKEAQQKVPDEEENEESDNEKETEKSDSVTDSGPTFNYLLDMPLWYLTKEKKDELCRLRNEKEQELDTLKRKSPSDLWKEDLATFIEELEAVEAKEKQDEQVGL

human TOP2A(431-1193) [4] = molecular target: T2, human TOP2A(431-1193); test: Fluorescence polarization (FP) assay of TOP2A-DNA interaction; assay type: binding; conditions: 500 nM protein, 0.01-200 µM compound
Experimental: Fluorescent polarization assay was performed in Corning® Low Volume 384-well Black Flat Bottom microplate. […] Triplicate reactions were transferred onto the microplate and incubated at room temperature for 20 min. Fluorescence polarization (FP) measurements were taken by Tecan Infinite F500 with the excitation wavelength of 485 nm and emission wavelength of 535 nm.
(A) EMSA was performed by purified full-length TOP2A or TOP2B proteins at a contraction of 300 nM with IRDay700 labeled 5ZRF DNA oligo at a concentration of 100 nM in the presence of −/+200 µM of ICRF193, T60, T637, and T638. […] Reactions were subjected to fluorescence […], which were detected by using the Multimode Microplate Reader (Infinite F500). (D) DNA cleavage assays were performed using full-length human TOP2A and TOP2B incubated with the supercoiled pHOT plasmid in the presence of 200 µM of etoposide plus 1, 100, or 200 µM of ICRF193, T60, T637, and T638. Reactions were separated on a DNA gel with ethidium bromide. All experiments were repeated three times, and one representative image was shown. Note: N, nicked DNA; L, linear DNA; and SC, supercoiled DNA.

K562 cells [5] = test: Cytotoxicity by LDH release; conditions: K562, 0-20 uM, 48 h
Experimental: (§2) (A) K562 cells were treated with 0, 0.5, 1, 5, 10, 15, and 20 uM of T60 or 0, 0.5, 1, 5, 10, 15, 20, 50, and 100 uM of T637 and T638 for 24, 48, or 72 h. […] (B) NCI-H446 small cell lung cancer line and Hela cervical cancer line were treated with 0, 0.5, 1, 5, 10, 15, and 20 uM of T60 or 0, 0.5, 1, 5, 10, 15, 20, 50, and 100 uM of T637 and T638 for five days. Cell growth rates were measured by using Incucyte^TM. (C) K562 cells were treated with 0, 5, 10, 15, and 20 uM of T60, T637, or T638 for 48 h. Cytotoxicity was evaluated by measuring the LDH levels from the culture media. (D) K562 cells were treated with the vehicle or 10–20 µM of etoposide, T60, T637, or T638 for 4 h. Immunoblotting measured p-H2AXγ levels in cells with vinculin as a loading control.

[6] = tested on: small cell lung cancer line NCI-H446; test: NCI-H446 cell growth (Incucyte); conditions: Homo sapiens, NCI-H446, 120 h, read-out: Cell growth inhibition
Experimental: as §2

K562 leukemia cells = test: K562 cell proliferation (MTS assay); conditions: K562, up to 100 uM
Experimental: as §2

K562 cells [7] = test: Immunoblotting of p-H2AXγ (DNA damage); conditions: K562, 10-20 µM, 4 h
Experimental: as §2

T1 sequence (P11388 whole entry): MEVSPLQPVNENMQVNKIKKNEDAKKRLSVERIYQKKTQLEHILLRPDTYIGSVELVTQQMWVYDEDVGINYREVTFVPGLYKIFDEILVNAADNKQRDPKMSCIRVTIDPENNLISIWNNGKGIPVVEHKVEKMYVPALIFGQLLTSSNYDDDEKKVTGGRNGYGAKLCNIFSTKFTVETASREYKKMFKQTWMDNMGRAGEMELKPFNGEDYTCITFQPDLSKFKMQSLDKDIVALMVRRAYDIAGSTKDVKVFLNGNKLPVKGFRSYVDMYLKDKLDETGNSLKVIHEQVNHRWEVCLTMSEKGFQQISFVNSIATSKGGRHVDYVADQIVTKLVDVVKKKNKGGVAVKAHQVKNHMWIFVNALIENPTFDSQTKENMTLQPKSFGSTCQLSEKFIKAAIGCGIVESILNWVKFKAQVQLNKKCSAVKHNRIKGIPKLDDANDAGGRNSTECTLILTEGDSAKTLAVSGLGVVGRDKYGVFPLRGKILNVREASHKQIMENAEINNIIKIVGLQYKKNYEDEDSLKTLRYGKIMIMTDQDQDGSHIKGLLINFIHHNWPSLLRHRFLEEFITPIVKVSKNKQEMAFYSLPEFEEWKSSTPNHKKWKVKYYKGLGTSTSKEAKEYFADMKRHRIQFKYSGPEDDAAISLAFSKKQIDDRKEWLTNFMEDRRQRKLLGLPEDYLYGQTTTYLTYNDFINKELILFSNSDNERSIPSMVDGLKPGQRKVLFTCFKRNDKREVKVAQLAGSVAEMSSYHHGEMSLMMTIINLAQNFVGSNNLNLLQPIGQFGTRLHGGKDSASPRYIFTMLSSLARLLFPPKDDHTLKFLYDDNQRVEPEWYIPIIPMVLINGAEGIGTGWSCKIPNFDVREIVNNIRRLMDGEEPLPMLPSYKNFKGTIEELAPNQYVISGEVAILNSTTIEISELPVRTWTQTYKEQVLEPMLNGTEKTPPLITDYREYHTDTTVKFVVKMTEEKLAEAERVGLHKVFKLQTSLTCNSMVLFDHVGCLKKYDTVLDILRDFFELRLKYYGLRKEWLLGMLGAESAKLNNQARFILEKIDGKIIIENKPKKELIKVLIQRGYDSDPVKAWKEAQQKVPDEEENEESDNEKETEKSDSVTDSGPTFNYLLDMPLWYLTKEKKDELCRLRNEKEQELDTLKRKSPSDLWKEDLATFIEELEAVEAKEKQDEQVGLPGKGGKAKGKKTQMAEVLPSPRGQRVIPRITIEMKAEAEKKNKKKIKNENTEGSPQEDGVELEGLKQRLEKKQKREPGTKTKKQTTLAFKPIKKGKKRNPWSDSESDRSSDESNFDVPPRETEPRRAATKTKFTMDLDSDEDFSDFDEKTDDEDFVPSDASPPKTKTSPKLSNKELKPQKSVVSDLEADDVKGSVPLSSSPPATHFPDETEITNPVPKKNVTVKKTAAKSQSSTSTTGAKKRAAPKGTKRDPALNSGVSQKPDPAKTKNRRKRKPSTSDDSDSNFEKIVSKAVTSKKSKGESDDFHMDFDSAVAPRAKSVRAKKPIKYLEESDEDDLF

IC50 (TOP2A [1]): ~0.7 µM
IC50 (TOP2A [2]): 2.1 µM
IC50 (TOP2B): 7.5 µM
SMILES: Nc1cc(Nc2ccccc2)ccc1NC(=O)c1ccc[nH]c1=S [T638]
Inhibition of TOP2A(431-1193)-DNA interaction (EMSA) (human TOP2A(431-1193) [3]): inhibited TOP2A–DNA interaction dose-dependently
Effect on TOP2A-DNA interaction (FP) (human TOP2A(431-1193) [4]): reduced the TOP2A–DNA interaction in a dose-dependent manner
Cytotoxicity (LDH release), in words (K562 cells [5]): not observed
inhibition at 100 µM [6]: 100%
Maximum cell proliferation inhibition (K562 leukemia cells; 48 h): 100%
Maximum cell proliferation inhibition (K562 leukemia cells; 72 h): 100%
Intracellular DNA damage (phospho-H2AXγ protein levels) (K562 cells [7]): do not cause intracellular DNA damage

— article PMC8345109, “Optimization of New Catalytic Topoisomerase II Inhibitors as an Anti-Cancer Therapy” (Cancers, 2021)
